In ChEMBL document CHEMBL2040546, “Identification of influenza endonuclease inhibitors using a novel fluorescence polarization assay” (ACS Chem Biol, 2012) one finds CC50 data, which are given here for 14 molecules.

The structures appear in SMILES notation.

The first experiment can be described thus: Cytotoxicity. Type of experiment: functional, Canis lupus familiaris, MDCK.
Conditions: not given
On to `O=C(NCC1CC1)c1nc(-c2cnccn2)[nH]c(=O)c1O`, for which the CC50 (commonly the concentration at which the toxic effect on the cells reaches its halfway point) was > 60 µM. The same measure, in the same setting: in the case of `O=C(NCc1ccccc1)c1nc(-c2cnccn2)[nH]c(=O)c1O` it was > 60 µM; in that of `Cc1ccc(CNC(=O)c2nc(-c3cnccn3)[nH]c(=O)c2O)cc1`, > 60 µM. On to `O=C(NCc1ccc(F)cc1)c1nc(-c2cnccn2)[nH]c(=O)c1O`, for which the CC50 was > 60 µM. Consider `COc1ccc(CNC(=O)c2nc(-c3cnccn3)[nH]c(=O)c2O)cc1`, for which the CC50 was > 60 µM. On the same count and under the same terms, in the case of `CC(NC(=O)c1nc(-c2cnccn2)[nH]c(=O)c1O)c1ccccc1` (centres undefined) it was > 60 µM. With `C[C@H](NC(=O)c1nc(-c2cnccn2)[nH]c(=O)c1O)c1ccccc1`, the CC50 is > 60 µM. For `C[C@@H](NC(=O)c1nc(-c2cnccn2)[nH]c(=O)c1O)c1ccccc1`, the CC50 was > 60 µM.

On to `Cc1ccc([C@@H](C)NC(=O)c2nc(-c3cnccn3)[nH]c(=O)c2O)cc1`, for which the CC50 was > 60 µM. The molecule `C[C@@H](NC(=O)c1nc(-c2cnccn2)[nH]c(=O)c1O)C1CCCCC1` registered a CC50 of 7.1 µM.

Take `O=C(N[C@H](CO)c1ccccc1)c1nc(-c2cnccn2)[nH]c(=O)c1O`: the CC50 is > 60 µM. Same read-out and setting: under `O=C(NC1CCCc2ccccc21)c1nc(-c2cnccn2)[nH]c(=O)c1O` (centres undefined) stands 10.2 µM; under `O=C(O)c1nc(-c2cnccn2)nc(O)c1O`, > 60 µM.

Still in this experiment, the particulars now being: Influenza A virus, MDCK.
Take `O=C(NCCc1ccccc1)c1nc(-c2cnccn2)[nH]c(=O)c1O`: the CC50 is > 60 µM.
